Results as given in patent US20250283073A1 (ORNA THERAPEUTICS, INC., priority 2021, published 2025).
Entries after “also recorded” stand apart in the source; their conditions may differ.

What was measured:
[1] = system: activated primary human T cells (TCLs); assay: IRES screening (Table 28), Gaussia luciferase LNP-oRNA in activated primary human T cells (TCLs); settings: protein expression relative to positive control (SEQ ID NO 3282 = 1)
From the text: (§1) Exemplary constructs included a 5′ enhanced intron element, a 5′ enhanced exon element, a putative IRES, a coding element encoding Gaussia Luciferase, a 3′ enhanced exon element, and a 3′ enhanced intron element.
(§2) Purified oRNA was nanoprecipitated with lipids to form LNP-oRNA constructs. LNPs were formulated first by creating empty lipid nanoparticles using a Precision Nanosystems Ignite instrument with a “NextGen” mixing chamber. Ethanol phase contained Lipid 39 from Table 10b, DSPC, cholesterol, and DMG-PEG 2000 (Avanti Polar Lipids, Inc., Alabaster, AL) at a molar ratio of 45:9:44:2 was combined with 50 mM sodium acetate buffer at pH 4.5. A 3:1 aqueous to ethanol mixing ratio was used. The empty LNPs were then dialyzed in 1 L of 1×PBS and exchanged 2 times over 18 hours. […] A 3:1 aqueous to empty lipid nanoparticle mixing ratio was used. The LNPs final ionizable lipid to RNA phosphate ratio was at 6.0.
(§3) Primary human skeletal myotubes (MYOs), primary human hepatocytes (PHHs), and activated primary human T cells (TCLs) were treated with formulated LNP-oRNA in triplicate. Protein expression in supernatant was assessed by luminescence measurements 48 hours following transfection.
(§4) Total luminescent signal was normalized across replicate plates to control for plate-wide differences between replicates due to flash assay readout timing. Plates with positive controls having <2× signal over background were excluded from analysis. Background was subtracted based on empty wells. Each test well replicate was normalized to its respective plate control and then the replicates were averaged.
(§5) Measured numbers are normalized to a control (caprine kobuvirus IRES, SEQ ID NO: 3282) and represented as a fold change.

[2] = system: primary human hepatocytes (PHHs); assay: IRES screening (Table 28), Gaussia luciferase LNP-oRNA in primary human hepatocytes (PHHs); settings: protein expression relative to positive control (SEQ ID NO 3282 = 1)
From the text: as §1, §2, §3, §4, §5

[3] = system: primary human skeletal myotubes (MYOs); assay: IRES screening (Table 28), Gaussia luciferase LNP-oRNA in primary human skeletal myotubes (MYOs); settings: protein expression relative to positive control (SEQ ID NO 3282 = 1)
From the text: as §1, §2, §3, §4, §5

[4] = system: splenic immune cells; assay: Cre circRNA LNP transfection of splenic immune cells in Ai9 Cre reporter mice (tdTomato); assay type: in vivo; settings: 0.5 mg/kg Cre circRNA LNP i.v., 48 hr, named by ionizable lipid, 0.5 mg/kg
Method: Circular RNAs encoding Cre recombinase (Cre) are encapsulated into lipid nanoparticles as previously described. Female, 6-8 week old B6.Cg-Gt(ROSA)26Sortm9(CAG-tdTomato)Hze/J (Ai9) mice were dosed with lipid nanoparticles at 0.5 mg/kg RNA intravenously. Fluorescent tdTomato protein was transcribed and translated in Ai9 mice upon Cre recombination, meaning circular RNAs have been delivered to and translated in tdTomato+ cells. After 48 hr, mice were euthanized and the spleens were harvested, processed into a single cell suspension, and stained with various fluorophore-conjugated antibodies for immunophenotyping via flow cytometry.
Ai9 mice (B6.Cg-Gt(ROSA)26Sortm9(CAG-tdTomato)Hze/J, female, 6-8 weeks, n=3 per group) were injected i.v. with 0.5 mg/kg Cre circRNA LNPs or PBS. Ai9 mice transcribe and translate the fluorescent reporter tdTomato upon Cre recombination; meaning cells which are tdTomato+ have successfully been transfected with Cre circRNA. […] Flow cytometry was performed using an Attune Nxt Flow Cytometer (Thermo).

| SMILES | TCL AVG [Fold Change] [1] [Fold Change] | PHH AVG [Fold Change] [2] [Fold Change] | MYO AVG [Fold Change] [3] [Fold Change] | splenic immune cells expressing tdTomato [4] |
| --- | --- | --- | --- | --- |
| CCCCCCCCC(CCCCCC)COC(=O)CCCCCCCCCN(CCCCO)CCCCCCCCCC(=O)OCC(CCCCCC)CCCCCCCC (centres unmarked) [Lipid 21] | 0.0748 | 0.1363 | 0.02126 | – |
| CCCCCCC(CCCC)COC(=O)CCCCCCCN(CCCCO)CCCCCCCC(=O)OCC(CCCC)CCCCCC (centres unmarked) [Lipid 49] | 0.07252 | 0.6215 | 0.1952 | – |
| CCCCCCC(CCCC)C(=O)OCCCCCCN(CCO)CCCCCCOC(=O)C(CCCC)CCCCCC (centres unmarked) [Lipid 29] | 0.01096 | 0.008274 | 0 | – |
| CCCCCCC(CCCC)C(=O)OCCCCCCCCCN(CCCCO)CCCCCCCCCOC(=O)C(CCCC)CCCCCC (centres unmarked) [Lipid 25] | 0.452 | 0.1559 | 0.0738 | – |
| CCCCCCCCC(CCCCCC)C(=O)OCCCCCCN(CCCCCCOC(=O)C(CCCCCC)CCCCCCCC)CCCOC (centres unmarked) [Lipid 41] | 0.02752 | 0.01033 | 0.0004126 | – |
| CCCCCCCCC(CCCCCC)C(=O)OCCCCCCN(CCCCCCOC(=O)C(CCCCCC)CCCCCCCC)CCCC(=O)OCC (centres unmarked) [Lipid 48] | 0.002803 | 0.4247 | 0.1303 | – |
| CCCCCCCCC(CCCCCC)C(=O)OCCCCCCCCCCCCN(CCCO)CCCCCCCCCCCCOC(=O)C(CCCCCC)CCCCCCCC (centres unmarked) [Lipid 38] | 0.02186 | 0.2209 | 0.07838 | – |
| CCCCCCCCC(CCCCCC)C(=O)OCCCCCCN(CCCCCCOC(=O)C(CCCCCC)CCCCCCCC)CCCn1ccnc1 (centres unmarked) [Lipid 10a-26] | – | – | – | significantly higher myeloid and T cell transfection compared with Lipid 93-S14; also recorded: effective at delivering circular RNAs to many splenic immune cell subsets |
| CCCCCCCCC(CCCCCC)C(=O)OCCCCCCN(CCCCCCOC(=O)C(CCCCCC)CCCCCCCC)C(CC)CO (centres unmarked) [Lipid 31] | 0.4863 | 0.6943 | 0.5881 | – |
| CCCCC(CC)C(=O)OCCCCCCCCCN(CCCO)CCCCCCCCCOC(=O)C(CC)CCCC (centres unmarked) [Lipid 43] | 0.2866 | 0.456 | 0.11 | – |
| CCCCCCCCC(CCCCCC)C(=O)OCCCCCCN(CCC#N)CCCCCCOC(=O)C(CCCCCC)CCCCCCCC (centres unmarked) [Lipid 47] | 0.02259 | 0.08942 | 0.00246 | – |
| CCCCCCCCCCC(CCCCCCCC)C(=O)OCCCCCCN(CCCCO)CCCCCCOC(=O)C(CCCCCCCC)CCCCCCCCCC (centres unmarked) [Lipid 26] | 0 | 0.01252 | 0.002759 | – |
| CCCCCCCCC(CCCCCC)C(=O)OCCCCCCN(CCCCCCOC(=O)C(CCCCCC)CCCCCCCC)CC(O)CO (centres unmarked) [Lipid 30] | 0.373 | 0.3984 | 0.1967 | – |
| CCCCCCCCCCCCCCCC(O)C(CO)N(CCCCCCOC(=O)C(CCCCCC)CCCCCCCC)CCCCCCOC(=O)C(CCCCCC)CCCCCCCC (centres unmarked) [Lipid 32] | 0.02974 | 0.3276 | 0.2163 | – |
| CCCCCCC(CCCC)C(=O)OCCCCCCN(CCCCO)CCCCCCOC(=O)C(CCCC)CCCCCC (centres unmarked) [Lipid 42] | 0.09322 | 0.3425 | 0.07198 | – |
| CCCCCCCCCCCCC(CCCCCCCCCC)C(=O)OCCCCCCN(CCCO)CCCCCCOC(=O)C(CCCCCCCCCC)CCCCCCCCCCCC (centres unmarked) [Lipid 44] | 0.01421 | 0.01602 | 0 | – |
| CCCCCCC(CCCC)C(=O)OCCCCCCN(CCCO)CCCCCCOC(=O)C(CCCC)CCCCCC (centres unmarked) [Lipid 28] | 0.1126 | 0.1221 | 0.01764 | – |
| CCCCCCCCC(CCCCCC)C(=O)OCCCCCCCCCCCCN(CCCCO)CCCCCCCCCCCCOC(=O)C(CCCCCC)CCCCCCCC (centres unmarked) [Lipid 23] | 0.002417 | 0.0008387 | 0 | – |
| CCCCCCCCCCCCC(CCCCCCCCCC)C(=O)OCCCCCCN(CCCCO)CCCCCCOC(=O)C(CCCCCCCCCC)CCCCCCCCCCCC (centres unmarked) [Lipid 27] | 0.02442 | 0.09892 | 0.01866 | – |
| CCCCCCCCC(CCCCCC)COC(=O)CCCCCCCN(CCO)CCCCCCCC(=O)OCC(CCCCCC)CCCCCCCC (centres unmarked) [Lipid 46] | 0.2472 | 0.503 | 0.2249 | – |
| CCCCCCCCCCC(CCCCCCCC)C(=O)OCCCCCCN(CCCO)CCCCCCOC(=O)C(CCCCCCCC)CCCCCCCCCC (centres unmarked) [Lipid 37] | 0.0237 | 0.2564 | 0.03859 | – |
| CCCCCCCCC(CCCCCC)C(=O)OCCCCCCCCCN(CCCCO)CCCCCCCCCOC(=O)C(CCCCCC)CCCCCCCC (centres unmarked) [Lipid 22] | 0.0309 | 0.0926 | 0.009137 | – |
| CCCCC(CC)C(=O)OCCCCCCCCCN(CCCCO)CCCCCCCCCOC(=O)C(CC)CCCC (centres unmarked) [Lipid 24] | 0.003111 | 0.0000246 | 0 | – |
| CCCCCCCCC(CCCCCC)C(=O)OCCCCCCN(CCCCCCOC(=O)C(CCCCCC)CCCCCCCC)CCCC(=O)OCC (centres unmarked) [Lipid 34] | 0.2638 | 0.4644 | 0.2168 | – |
| CCCCCCCCC(CCCCCC)C(=O)OCCCCCCN(CCCCCCOC(=O)C(CCCCCC)CCCCCCCC)CCCCNC(C)=O (centres unmarked) [Lipid 36] | 0.0009344 | 0 | 0 | – |
| CCCCCCCCC(CCCCCC)C(=O)OCCCCCCN(CCCCCCOC(=O)C(CCCCCC)CCCCCCCC)CCCCOC(C)=O (centres unmarked) [Lipid 33] | 0.2088 | 0.4409 | 0.3574 | – |
| CCCCCCCCC(CCCCCC)COC(=O)CCCCCN(CCCCCC(=O)OCC(CCCCCC)CCCCCCCC)CCCC(=O)OCC (centres unmarked) [Lipid 39] | 0.003256 | 0.003901 | 0.0002919 | – |
| CCCCCCCCC(CCCCCC)C(=O)OCCCCCCN(CCCCCCOC(=O)C(CCCCCC)CCCCCCCC)CC(O)CC (centres unmarked) [Lipid 40] | 0.05108 | 0.2391 | 0.199 | – |
| CCCCCCCCC(CCCCCC)C(=O)OCCCCCCN(CCCCCCOC(=O)C(CCCCCC)CCCCCCCC)CCCn1ccnc1C (centres unmarked) [Lipid 10a-27] | – | – | – | significantly higher myeloid and T cell transfection compared with Lipid 93-S14; also recorded: effective at delivering circular RNAs to many splenic immune cell subsets |
| CCCCCCCCC(CCCCCC)C(=O)OCCCCCCN(CCCC#N)CCCCCCOC(=O)C(CCCCCC)CCCCCCCC (centres unmarked) [Lipid 35] | 0.004133 | 0.005378 | 0 | – |
